Patent publication US12239619B2, “Composition for inducing pili formation in bacterium of genus Bifidobacterium” (MORINAGA MILK INDUSTRY CO., LTD., priority 2019, dated 2025)

Key:
Assay type in all cases: cell-based
[1] = test system: Bifidobacterium longum 1-1 strain; experiment: Pili induction in cultured Bifidobacterium longum, Western blotting with anti-FimA antibody; conditions: anaerobic, 37° C.; for pili formation by Western blotting: 10 μg/mL in GAM agar medium, 24 hours (Test Example 5)
Method: KUHIMM culture solution (900 mL) containing human feces used in Test Example 1 was fractionated in the order of MilliQ water, 50% methanol, and 100% methanol (250 mL of each) with an activated carbon column (resin volume: 45 mL). Of each fraction, 100 μL was collected in another container, dried under reduced pressure, and then redissolved in 50 μL of MilliQ water. Subsequently, the Bifidobacterium longum 1-1 strain was cultured in GAM medium, and 50 μL of the redissolved solution of the above fraction was added to 1 mL of the bacterial solution obtained by adjusting the above culture solution at OD600=0.1, and culture was performed at 37° C. for 24 hours. After culture, the cells were collected by centrifugation (4000×g, 5 minutes).
Bifidobacterium longum 1-1 strain was anaerobically cultured at 37° C. for 24 hours on GAM agar medium containing 10 μg/mL of aromatic amino acids or the amino acid metabolite produced by Clostridium sporogenes.

[2] = test system: Bifidobacterium longum 1-1 strain; experiment: Scanning electron microscope observation of pili in cultured Bifidobacterium longum; conditions: 10 μg/mL in GAM agar medium, anaerobic, 37° C., 24 hours
[3] = test system: human intestinal epithelial cell line (Caco-2 or HT29-MTX); experiment: Adhesion of cultured Bifidobacterium longum to human intestinal epithelial cell line; conditions: B. longum cultured with 10 μg/mL PPA, 15 hours, 2 hours
Method: Furthermore, the adhesion of the cultured cells to the human intestinal epithelial cell line (Caco-2 or HT29-MTX) was evaluated. Specifically, the Bifidobacterium longum 1-1 strain was cultured on GAM medium containing 10 μg/mL of PPA at 37° C. for 15 hours. The cells were centrifuged (4000×g, 1 min, 4° C.), collected, and suspended in Dulbecco's modified Eagle's medium (DMEM) at OD600=0.5. 0.2 mL of this bacterial solution was added to a chamber slide glass in which HT29-MTX or Caac-2 cells had been cultured in a single layer, and was allowed to stand at 37° C. for 2 hours. After washing with DMEM medium, Bifidobacterium longum adhered with 4% paraformaldehyde was fixed and stained with crystal violet. The number of bacteria per well was counted under a microscope.

| Structure (SMILES) | pili formation by Western blotting [1] | concentration in the medium that clearly induced the pili formation ([1]; GAM agar medium, 24 hours) | pili polymerization ([1]; GAM agar medium, final concentration 0.01 to 80 μg/mL, 24 hours) | pili observed with scanning electron microscope [2] | adhesion to human intestinal epithelial cell line, presence versus absence [3] |
| --- | --- | --- | --- | --- | --- |
| O=C(O)CCc1ccccc1 [3-phenylpropionic acid] | pili formation was observed | more than 0.1 μg/mL | induced pili polymerization dose-dependently | large fiber-shaped pili were observed | significantly larger |
| O=C(O)CCc1ccc(O)cc1 [3-(4-hydroxyphenyl)propionic acid] | pili formation was observed although less significant than in the former case |  |  |  |  |
